Data taken from PMC11476629, “Exploring a Potential Optimization Route for Peptide Ligands of the Sam Domain from the Lipid Phosphatase Ship2” (International Journal of Molecular Sciences, 2024).
Non-standard residues stand in square brackets, D forms with d. Residues, ends and D or L forms follow the SMILES beside them. βAla = NCCC(=O)O

Columns and labels:
PC-3 cells = conditions: 4 h, crystal violet
Method: (§1) Media and supplements were obtained from Thermo Fisher Scientific (Milan, Italy). PC-3 cells were cultured in the RPMI 1640 medium enriched with 10% fetal bovine serum (FBS) and 2 mM L-glutamine. NHDFs were cultured in the DMEM medium complemented with 2% FBS, 1 μg/mL hydrocortisone, 10 ng/mL human epidermal growth factor, 3 ng/mL basic fibroblast growth factor, and 10 μg/mL heparin. For the cytotoxicity assay 96-well flat-bottom microplates were used and 4 × 10^3 cancer cells and 5 × 10^3 NHDF cells were seeded in 50 μL of medium per well and incubated overnight to permit cell adhesion at 37 °C in a 5% CO2 humidified atmosphere. Following the removal of the culture medium, cells were incubated with 100 μL of their growth medium containing 50 and 100 μM TAT-PSscan255 for 4 h. TAT-PSscan255 was dissolved in water. The crystal violet assay was performed to assess cell viability. The amount of dye taken up was quantified with a plate reader (Multiskan Fc 10094, Thermo Fisher Scientific, Milan, Italy) at 595 nm. Data, reported as means ± SEM of three independent experiments carried out in quadruplicate, were presented as the percentage of proliferating cells compared to the control (vehicle-treated cells).

[1] = system: normal human dermal fibroblasts (NHDFs); conditions: NHDF, 50 and 100 µM, 4 h, crystal violet; three experiments in quadruplicate
Method: as §1

[2] = system: EphA2 levels in PC-3 cells; assay: Western blot analysis of EphA2 levels; type: cell-based; conditions: n = 3
Method: The levels of EphA2 were monitored in PC-3 cells through Western blot analysis to evaluate if the binding of the TAT-PSscan255 peptide to Ship2-Sam could avoid the inhibition of EphA2 endocytosis and degradation. For this purpose, PC-3 cells were treated with ephrinA1-Fc (1 µg/mL for 2 h) and TAT-PSscan255 (50 µM for 4 h), both alone and in combination (i.e., pre-treating with TAT-peptide 50 µM for 2 h followed by the addition of ephrinA1-Fc 1 µg/mL for an extra 2 h) (Figure 7b).
PC-3 cells were treated with TAT-PSscan255 (50 μM) for 4 h and ephrinA1-Fc (1 μg/mL) for 2 h, both alone and in combination. […] Lysates were centrifuged at 13,000 rpm for 30 min at 4 °C and the protein concentration in the supernatants was evaluated using the Bradford assay. […] Quantification was achieved through densitometric analysis with the ImageJ software (v.1.54g) (National Institutes of Health, Bethesda, MD, USA, https://imagej.org). Statistical significance regarding the comparison between treated and untreated cells was evaluated with one-way ANOVA using Dunnett’s post-test analysis. Statistical analysis was assessed with the OriginPro software v.2023 (OriginLab Corporation, Northampton, MA, USA).

With `CC[C@H](C)[C@H](NC(=O)[C@H](CCCNC(=N)N)NC(=O)[C@H](CCCCN)NC(=O)[C@H](CC(N)=O)NC(=O)[C@H](C)NC(=O)[C@H](CC(C)C)NC(=O)[C@H](Cc1ccccc1)NC(=O)[C@H](CCCCN)NC(=O)[C@H](Cc1ccc(O)cc1)NC(=O)[C@H](Cc1c[nH]c2ccccc12)NC(=O)[C@H](CCC(=O)O)NC(=O)[C@H](CCCNC(=N)N)NC(=O)[C@H](CCCCN)NC(=O)CNC(=O)CNC(=O)[C@H](CCC(N)=O)NC(=O)[C@@H]1CCCN1C(=O)[C@@H]1CCCN1C(=O)[C@H](CCCNC(=N)N)NC(=O)[C@H](CCCNC(=N)N)NC(=O)[C@H](CCCNC(=N)N)NC(=O)[C@H](CCC(N)=O)NC(=O)[C@H](CCCNC(=N)N)NC(=O)[C@H](CCCNC(=N)N)NC(=O)[C@H](CCCCN)NC(=O)[C@H](CCCCN)NC(=O)[C@H](CCCNC(=N)N)NC(=O)CNC(=O)CCNC(C)=O)C(=O)N[C@@H](C)C(=O)N[C@@H](Cc1ccc(O)cc1)C(N)=O` [TAT-PSscan255] (Ac-[βAla]GRKKRRQRRRPPQGGKREWYKFLANKRIAY-NH2) the “Cytotoxicity towards PC-3 compared with NHDFs” value (PC-3 cells; 50 and 100 µM) was “increased cytotoxicity towards PC-3 with respect to NHDFs”, the “Cytotoxic effect (cell viability relative to untreated cells)” value (PC-3 cells; PC-3, 50 and 100 µM, three experiments in quadruplicate) was “increased cytotoxic effect as a function of concentration” and the “Cytotoxic effect (cell viability relative to untreated cells)” value [1] was “increased cytotoxic effect as a function of concentration”. For the same molecule, the “EphA2 levels with respect to untreated control” value ([2]; PC-3, TAT-PSscan255 alone, 50 µM for 4 h) was “a certain decrease in EphA2 levels” and the “EphA2 levels with respect to untreated control” value ([2]; PC-3, TAT-peptide 50 µM for 2 h, then ephrinA1-Fc 1 µg/mL added for an extra 2 h) was “a reduction in EphA2 levels like that observed for the ephrin ligand when used by itself”.
